Measured values: patent publication US12643903B2, “Bifunctional compounds for degradation of EGFR and related methods of use” (BeiGene, Ltd., priority 2020, dated 2026)

What was measured:
EGFR [1] = target: T1, EGFR (Homo sapiens, UniProt P00533, L858R/T790M); test: Cell Degradation 1: EGFR degradation in H1975 cells, HTRF assay; type: cell-based; conditions: 16 h treatment, EGFR degradation by HTRF
T1 construct: endogenous in cells; host or cells: H1975
Description: After 16 h treatment, add 100 μl 1×lysis buffer to each well; seal the plate and incubate 1 hour at room temperature on a plate shaker; Once the cells are lysed, 16 μL of cell lysate are transferred to a PE 384-well HTRF detection plate; 4 μL of pre-mixed HTRF antibodies are added to each well; Cover the plate with a plate sealer, spin 1000 rpm for 1 min, Incubate overnight at room temperature; Read on BMG PheraStar with HTRF protocol (337 nm-665 nm-620 nm).
(§1) The IC50 (DC50) value of a compound can be obtained by fitting the following equation Y=Bottom+(TOP−Bottom)/(1+((IC50/X)^hillslope))
(§2) Wherein, X and Y are known values, and IC50, Hillslope, Top and Bottom are the parameters obtained by fitting with software. Y is the inhibition percentage (calculated from the equation), X is the concentration of the compound; IC50 is the concentration of the compound when the 50% inhibition is reached. The smaller the IC50 value is, the stronger the inhibitory ability of the compound is. Vice versa, the higher the IC50 value is, the weaker the ability the inhibitory ability of the compound is; Hillslope represents the slope of the fitted curve, generally around 1*; Bottom represents the minimum value of the curve obtained by data fitting, which is generally 0%±20%; Top represents the maximum value of the curve obtained by data fitting, which is generally 100%±20%. The experimental data were fitted by calculating and analyzing with Dotmatics data analysis software.

EGFR [2] = target: T2, EGFR (Homo sapiens, UniProt P00533, DEL746-750); test: Cell Degradation 2: EGFR degradation in HCC827 cells, HTRF assay; type: cell-based; conditions: 16 h treatment, EGFR degradation by HTRF
T2 construct: endogenous in cells; host or cells: HCC827
Description: After 16 h treatment, add 100 μl 1×lysis buffer to each well; seal the plate and incubate 1 hour at room temperature on a plate shaker; Once the cells are lysed, 16 μl diluted (2 μL to 14 μl 1× lysisi buffer) cell lysate are transferred to a PE 384-well HTRF detection plate; 4 μL of pre-mixed HTRF antibodies are added to each well; Cover the plate with a plate sealer, spin 1000 rpm for 1 min, Incubate overnight at room temperature; Read on BMG PheraStar with HTRF protocol (337 nm-665 nm-620 nm).
as §1, §2

T1 sequence (P00533 25-1210 T790M/L858R): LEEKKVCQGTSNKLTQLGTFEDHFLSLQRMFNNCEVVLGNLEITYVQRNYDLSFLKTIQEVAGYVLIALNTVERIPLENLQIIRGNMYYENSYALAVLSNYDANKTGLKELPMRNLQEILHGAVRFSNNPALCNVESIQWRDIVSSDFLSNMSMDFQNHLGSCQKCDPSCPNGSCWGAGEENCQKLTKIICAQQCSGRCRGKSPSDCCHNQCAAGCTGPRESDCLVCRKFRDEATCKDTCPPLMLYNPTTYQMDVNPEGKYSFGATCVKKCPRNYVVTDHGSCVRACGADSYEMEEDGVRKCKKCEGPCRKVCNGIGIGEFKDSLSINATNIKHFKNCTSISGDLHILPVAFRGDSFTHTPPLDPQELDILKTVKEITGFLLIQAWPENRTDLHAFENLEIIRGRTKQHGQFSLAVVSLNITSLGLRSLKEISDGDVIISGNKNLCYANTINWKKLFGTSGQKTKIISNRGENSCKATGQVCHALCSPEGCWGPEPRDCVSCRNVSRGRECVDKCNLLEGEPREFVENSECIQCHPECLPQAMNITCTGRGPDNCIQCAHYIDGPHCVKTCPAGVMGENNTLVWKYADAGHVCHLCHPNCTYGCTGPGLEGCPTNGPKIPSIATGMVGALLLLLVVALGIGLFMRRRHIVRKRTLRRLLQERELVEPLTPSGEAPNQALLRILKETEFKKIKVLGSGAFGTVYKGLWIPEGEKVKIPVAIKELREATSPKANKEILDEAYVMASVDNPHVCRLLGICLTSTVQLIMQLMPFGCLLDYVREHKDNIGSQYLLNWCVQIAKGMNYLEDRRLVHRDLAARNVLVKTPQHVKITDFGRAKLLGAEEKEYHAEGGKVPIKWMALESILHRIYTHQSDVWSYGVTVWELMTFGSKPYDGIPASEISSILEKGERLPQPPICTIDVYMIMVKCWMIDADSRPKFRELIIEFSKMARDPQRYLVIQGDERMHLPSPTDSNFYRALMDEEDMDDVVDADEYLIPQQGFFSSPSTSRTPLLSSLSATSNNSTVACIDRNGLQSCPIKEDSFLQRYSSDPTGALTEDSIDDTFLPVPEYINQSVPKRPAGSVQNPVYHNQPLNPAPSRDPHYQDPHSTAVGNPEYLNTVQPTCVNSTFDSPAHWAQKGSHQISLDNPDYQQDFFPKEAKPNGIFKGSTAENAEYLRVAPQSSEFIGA
T2 sequence (P00533 with tags, fused parts or gaps DEL746-750): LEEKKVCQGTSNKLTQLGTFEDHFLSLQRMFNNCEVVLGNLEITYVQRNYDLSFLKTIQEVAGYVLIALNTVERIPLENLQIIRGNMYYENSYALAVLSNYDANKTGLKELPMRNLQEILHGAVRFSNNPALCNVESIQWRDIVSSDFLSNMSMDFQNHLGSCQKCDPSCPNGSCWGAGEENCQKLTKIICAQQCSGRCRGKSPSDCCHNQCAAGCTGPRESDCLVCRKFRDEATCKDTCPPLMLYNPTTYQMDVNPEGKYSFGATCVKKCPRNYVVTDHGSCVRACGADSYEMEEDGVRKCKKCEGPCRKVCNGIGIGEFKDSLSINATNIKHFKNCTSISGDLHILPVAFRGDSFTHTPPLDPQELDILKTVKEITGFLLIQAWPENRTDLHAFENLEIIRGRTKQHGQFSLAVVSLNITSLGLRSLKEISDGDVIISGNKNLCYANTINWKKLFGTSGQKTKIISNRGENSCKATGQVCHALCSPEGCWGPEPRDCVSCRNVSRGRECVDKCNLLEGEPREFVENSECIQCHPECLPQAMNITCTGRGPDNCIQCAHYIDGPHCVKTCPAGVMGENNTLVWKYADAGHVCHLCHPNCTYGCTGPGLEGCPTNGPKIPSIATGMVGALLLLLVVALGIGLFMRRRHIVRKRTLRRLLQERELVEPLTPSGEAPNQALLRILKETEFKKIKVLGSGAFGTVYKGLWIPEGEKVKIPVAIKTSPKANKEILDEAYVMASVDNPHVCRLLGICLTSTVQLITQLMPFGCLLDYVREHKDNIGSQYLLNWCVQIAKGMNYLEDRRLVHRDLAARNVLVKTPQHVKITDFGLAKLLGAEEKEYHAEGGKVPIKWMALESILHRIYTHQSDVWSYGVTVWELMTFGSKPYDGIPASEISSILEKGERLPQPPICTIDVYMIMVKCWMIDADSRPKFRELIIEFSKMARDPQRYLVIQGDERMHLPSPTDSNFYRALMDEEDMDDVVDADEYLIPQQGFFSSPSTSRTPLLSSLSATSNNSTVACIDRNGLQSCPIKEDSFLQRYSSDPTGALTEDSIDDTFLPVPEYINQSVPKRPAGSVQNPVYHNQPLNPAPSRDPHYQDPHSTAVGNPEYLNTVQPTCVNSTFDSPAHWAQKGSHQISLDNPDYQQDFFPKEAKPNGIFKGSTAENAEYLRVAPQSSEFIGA
T2 sequence (Q96SW2 whole entry partner): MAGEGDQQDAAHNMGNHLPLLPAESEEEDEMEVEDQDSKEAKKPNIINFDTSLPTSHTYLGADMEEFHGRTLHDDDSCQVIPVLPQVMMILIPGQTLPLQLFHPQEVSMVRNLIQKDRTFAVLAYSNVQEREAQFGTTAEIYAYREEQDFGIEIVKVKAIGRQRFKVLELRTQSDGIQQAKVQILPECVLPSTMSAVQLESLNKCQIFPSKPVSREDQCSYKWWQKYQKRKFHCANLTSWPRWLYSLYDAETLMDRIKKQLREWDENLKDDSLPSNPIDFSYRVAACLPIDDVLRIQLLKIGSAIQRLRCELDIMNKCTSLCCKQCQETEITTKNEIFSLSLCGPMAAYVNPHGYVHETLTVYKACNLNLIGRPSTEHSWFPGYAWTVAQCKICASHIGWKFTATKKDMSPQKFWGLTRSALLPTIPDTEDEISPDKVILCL

Row | SMILES | DC50 (EGFR [1]) [nM] | DC50 (EGFR [2]) [nM]
1 | CN(CCc1ccc(C2CCC(=O)NC2=O)c(F)c1)C1CCN(c2ccc(Nc3ncc(Cl)c(Nc4cccc5c4N(S(C)(=O)=O)CC5)n3)c3c2CCO3)CC1 (stereo not drawn) [Example 48, 3-(4-(2-((1-(7-((5-chloro-4-((1-(methylsulfonyl)indolin-7-yl)amino)pyrimidin-2-yl)amino)-2,3-dihydrobenzofuran-4-yl)piperidin-4-yl)(methyl)amino)ethyl)-2-fluorophenyl)piperidine-2,6-dione] | > 10000 | 51.8
2 | CS(=O)(=O)N1CCc2cccc(Nc3nc(Nc4ccc(N5CCC(N6CCN(CCC7CCN(c8ccc(C9CCC(=O)NC9=O)c(F)c8)CC7)CC6)CC5)c5c4OCC5)ncc3Cl)c21 (stereo not drawn) [Example 51, 3-(4-(4-(2-(4-(1-(7-((5-chloro-4-((1-(methylsulfonyl)indolin-7-yl)amino)pyrimidin-2-yl)amino)-2,3-dihydrobenzofuran-4-yl)piperidin-4-yl)piperazin-1-yl)ethyl)piperidin-1-yl)-2-fluorophenyl)piperidine-2,6-dione] | 19.5 | 12.4
3 | COc1cc(N2CCC(N3CCN(CCC4CCN(c5ccc(C6CCC(=O)NC6=O)c(F)c5)CC4)CC3)CC2)c(C)cc1Nc1ncc(Br)c(Nc2cccc3c2N(S(C)(=O)=O)CC3)n1 (stereo not drawn) [Example 90, 3-(4-(4-(2-(4-(1-(4-((5-bromo-4-((1-(methylsulfonyl)indolin-7-yl)amino)pyrimidin-2-yl)amino)-5-methoxy-2-methylphenyl)piperidin-4-yl)piperazin-1-yl)ethyl)piperidin-1-yl)-2-fluorophenyl)piperidine-2,6-dione] | 96.4 | 40.2
4 | CN(CCC1CCN(c2ccc(C3CCC(=O)NC3=O)c(F)c2)CC1)C1CCN(c2ccc(Nc3ncc(Cl)c(Nc4cccc5c4N(S(C)(=O)=O)CC5)n3)c3c2CCO3)CC1 (stereo not drawn) [Example 46, 3-(4-(4-(2-((1-(7-((5-chloro-4-((1-(methylsulfonyl)indolin-7-yl)amino)pyrimidin-2-yl)amino)-2,3-dihydrobenzofuran-4-yl)piperidin-4-yl)(methyl)amino)ethyl)piperidin-1-yl)-2-fluorophenyl)piperidine-2,6-dione] | 23.2 | 32.2
5 | CN(CCC1CCN(c2ccc(C3CCC(=O)NC3=O)cc2)CC1)C1CCN(c2ccc(Nc3ncc(Cl)c(Nc4cccc5c4N(S(C)(=O)=O)CC5)n3)c3c2CCO3)CC1 (stereo not drawn) [Example 49, 3-(4-(4-(2-((1-(7-((5-chloro-4-((1-(methylsulfonyl)indolin-7-yl)amino)pyrimidin-2-yl)amino)-2,3-dihydrobenzofuran-4-yl)piperidin-4-yl)(methyl)amino)ethyl)piperidin-1-yl)phenyl)piperidine-2,6-dione] | > 10000 | 138
6 | CS(=O)(=O)N1CCc2cccc(Nc3nc(Nc4ccc(N5CCC(N6CCN(CCCC7CN(c8ccc9c(c8)C(=O)N(C8CCC(=O)NC8=O)C9=O)C7)CC6)CC5)c(F)c4)ncc3Cl)c21 (stereo not drawn) [Example 78, 5-(3-(3-(4-(1-(4-((5-chloro-4-((1-(methylsulfonyl)indolin-7-yl)amino)pyrimidin-2-yl)amino)-2-fluorophenyl)piperidin-4-yl)piperazin-1-yl)propyl)azetidin-1-yl)-2-(2,6-dioxopiperidin-3-yl)isoindoline-1,3-dione] | 5.5 | 4.6
7 | CS(=O)(=O)N1CCc2cccc(Nc3nc(Nc4ccc(N5CCC(N6CCN(CCOc7cccc8c7CN(C7CCC(=O)NC7=O)C8=O)CC6)CC5)c(F)c4)nc4[nH]ccc34)c21 (stereo not drawn) [Example 20, 3-(4-(2-(4-(1-(2-fluoro-4-((4-((1-(methylsulfonyl)indolin-7-yl)amino)-7H-pyrrolo[2,3-d]pyrimidin-2-yl)amino)phenyl)piperidin-4-yl)piperazin-1-yl)ethoxy)-1-oxoisoindolin-2-yl)piperidine-2,6-dione] | 9.7 | 14.7
8 | CS(=O)(=O)N1CCc2cccc(Nc3nc(Nc4ccc(N5CCC(N6CCN(CCCOc7ccc(OC8CCC(=O)NC8=O)cc7)CC6)CC5)c(F)c4)nc4[nH]ccc34)c21 (stereo not drawn) [Example 4, 3-(4-(3-(4-(1-(2-fluoro-4-((4-((1-(methylsulfonyl)indolin-7-yl)amino)-7H-pyrrolo[2,3-d]pyrimidin-2-yl)amino)phenyl)piperidin-4-yl)piperazin-1-yl)propoxy)phenoxy)piperidine-2,6-dione] | 15.5 | > 10000
9 | COc1cc(N2CCC(N3CCN(CCC4CN(c5ccc(C6CCC(=O)NC6=O)cc5)C4)CC3)CC2)ccc1Nc1ncc(Cl)c(Nc2cccc3c2N(S(C)(=O)=O)CC3)n1 (stereo not drawn) [Example 84, 3-(4-(3-(2-(4-(1-(4-((5-chloro-4-((1-(methylsulfonyl)indolin-7-yl)amino)pyrimidin-2-yl)amino)-3-methoxyphenyl)piperidin-4-yl)piperazin-1-yl)ethyl)azetidin-1-yl)phenyl)piperidine-2,6-dione] | > 10000 | 1980

Further lines, results first:

Row | DC50 (EGFR [1]) [nM] | DC50 (EGFR [2]) [nM] | SMILES
10 | 2.7 | 3.1 | CS(=O)(=O)N1CCc2cccc(Nc3nc(Nc4ccc(N5CCC(N6CCN(CC7CN(c8ccc9c(c8)CN(C8CCC(=O)NC8=O)C9=O)C7)CC6)CC5)c(F)c4)nc4[nH]ccc34)c21 (stereo not drawn) [Example 59, 3-(5-(3-((4-(1-(2-fluoro-4-((4-((1-(methylsulfonyl)indolin-7-yl)amino)-7H-pyrrolo[2,3-d]pyrimidin-2-yl)amino)phenyl)piperidin-4-yl)piperazin-1-yl)methyl)azetidin-1-yl)-1-oxoisoindolin-2-yl)piperidine-2,6-dione]
11 | 2.8 | 17.7 | CS(=O)(=O)N1CCc2cccc(Nc3nc(Nc4ccc(N5CCC(N6CCN(C(=O)C7CN(c8ccc(C9CCC(=O)NC9=O)cc8)C7)CC6)CC5)c(F)c4)nc4[nH]ccc34)c21 (stereo not drawn) [Example 58, 3-(4-(3-(4-(1-(2-fluoro-4-((4-((1-(methylsulfonyl)indolin-7-yl)amino)-7H-pyrrolo[2,3-d]pyrimidin-2-yl)amino)phenyl)piperidin-4-yl)piperazine-1-carbonyl)azetidin-1-yl)phenyl)piperidine-2,6-dione]
12 | 3.9 | > 10000 | CS(=O)(=O)N1CCc2cccc(Nc3nc(Nc4ccc(N5CCC(N6CCN(C(=O)[C@H]7CCN(c8ccc9c(c8)C(=O)N(C8CCC(=O)NC8=O)C9=O)C7)CC6)CC5)c(F)c4)nc4[nH]ccc34)c21 (stereo partly drawn) [Example 63, 2-(2,6-dioxopiperidin-3-yl)-5-((S)-3-(4-(1-(2-fluoro-4-((4-((1-(methylsulfonyl)indolin-7-yl)amino)-7H-pyrrolo[2,3-d]pyrimidin-2-yl)amino)phenyl)piperidin-4-yl)piperazine-1-carbonyl)pyrrolidin-1-yl)isoindoline-1,3-dione]
13 | 5.7 | 19.4 | CS(=O)(=O)N1CCc2cccc(Nc3nc(Nc4ccc(N5CCC(N6CCN(C(=O)CC7CN(c8ccc9c(c8)C(=O)N(C8CCC(=O)NC8=O)C9=O)C7)CC6)CC5)c(F)c4)nc4[nH]ccc34)c21 (stereo not drawn) [Example 61, 2-(2,6-dioxopiperidin-3-yl)-5-(3-(2-(4-(1-(2-fluoro-4-((4-((1-(methylsulfonyl)indolin-7-yl)amino)-7H-pyrrolo[2,3-d]pyrimidin-2-yl)amino)phenyl)piperidin-4-yl)piperazin-1-yl)-2-oxoethyl)azetidin-1-yl)isoindoline-1,3-dione]
14 | 6.1 | 156 | CS(=O)(=O)N1CCc2cccc(Nc3nc(Nc4ccc(N5CCC(N6CCN(CC[C@@H]7CCN(c8ccc(C9CCC(=O)NC9=O)cc8)C7)CC6)CC5)c(F)c4)nc4[nH]ccc34)c21 (stereo partly drawn) [Example 64, 3-(4-((R)-3-(2-(4-(1-(2-fluoro-4-((4-((1-(methylsulfonyl)indolin-7-yl)amino)-7H-pyrrolo[2,3-d]pyrimidin-2-yl)amino)phenyl)piperidin-4-yl)piperazin-1-yl)ethyl)pyrrolidin-1-yl)phenyl)piperidine-2,6-dione]
15 | 4.9 | 14.6 | CS(=O)(=O)N1CCc2cccc(Nc3nc(Nc4ccc(N5CCC(N6CCN(CC7CN(c8ccc9c(c8)C(=O)N(C8CCC(=O)NC8=O)C9=O)C7)CC6)CC5)c(F)c4)nc4[nH]ccc34)c21 (stereo not drawn) [Example 60, 2-(2,6-dioxopiperidin-3-yl)-5-(3-((4-(1-(2-fluoro-4-((4-((1-(methylsulfonyl)indolin-7-yl)amino)-7H-pyrrolo[2,3-d]pyrimidin-2-yl)amino)phenyl)piperidin-4-yl)piperazin-1-yl)methyl)azetidin-1-yl)isoindoline-1,3-dione]
